Paper PMC4819005 (ACS chemical biology, 2015)
Peptide text beside a SMILES is read from it.

Key:
PPARγ = conditions: cited from earlier work
3T3-L1 cells = test: In vitro adipocyte differentiation, Oil Red O staining for lipid accumulation; type: cell-based; conditions: differentiated 3T3-L1 preadipocytes, treated 2 or 3 days
[1] = system: aP2 (FABP4) mRNA in SVF cells; test: qPCR of PPARγ target gene aP2; type: cell-based, murine; conditions: 5 μM compound, 3 days, normalized to GAPDH
[2] = Aggregation seen in SPR running buffer; type: physicochemical; conditions: PBS + 5%DMSO

For `N[C@@H](Cc1c[nH]c2ccccc12)C(=O)N[C@@H](CCC(=O)O)C(=O)O` [G3335] (H-Trp-Glu-OH), the kd (PPARγ) is given as 0.028 s⁻¹.
With `CCC(NC(=O)c1ccc2c(ccn2S(=O)(=O)c2cccc3ccccc23)c1)c1ccccc1` (stereo not shown) [SR2067, 1-(Naphthalen-1-ylsulfonyl)-N-(1-phenylpropyl)-1H-indole-5-carboxamide] the “oil red staining for lipid accumulation” value (3T3-L1 cells) was “less than that of the full agonist rosiglitazone but higher than that of the antagonist SR1664” and the “expression levels of the PPARγ target gene aP2” value [1] was “lower than those observed in cells treated with the full agonist rosiglitazone but higher than those in cells exposed to the antagonist SR1664”.
For `CN(CCOc1ccc(CC2SC(=O)NC2=O)cc1)c1ccccn1` (stereo not shown) [rosiglitazone, Rosiglitazone], the “concentration above which concentration-dependent aggregation occurs” value [2] was “above 30 μM”.
